Source: patent US8541460B2, “PDK-1/Akt signaling inhibitors” (The Ohio State University, priority 2003, dated 2013)

Columns and labels:
Type in all cases: cell-based
[1] = system: OVCAR-3; test: NCI DTP cell line screen (SRB), Ovarian Cancer
Method: (§1) Screening of compounds 70 and 71 against several cancer cell lines The human tumor cell lines of the cancer screening panel are grown in RPMI 1640 medium containing 5% fetal bovine serum and 2 mM L-glutamine. For a typical screening experiment, cells are inoculated into 96 well microtiter plates in 100 μL at plating densities ranging from 5,000 to 40,000 cells/well depending on the doubling time of individual cell lines. After cell inoculation, the microtiter plates are incubated at 37° C., 5% CO2, 95% air and 100% relative humidity for 24 h prior to addition of experimental drugs.
(§2) After 24 h, two plates of each cell line are fixed in situ with TCA, to represent a measurement of the cell population for each cell line at the time of drug addition (Tz). Experimental drugs are solubilized in dimethyl sulfoxide at 400-fold the desired final maximum test concentration and stored frozen prior to use. At the time of drug addition, an aliquot of frozen concentrate is thawed and diluted to twice the desired final maximum test concentration with complete medium containing 50 μg/ml gentamicin. Additional four, 10-fold or ½ log serial dilutions are made to provide a total of five drug concentrations plus control. Aliquots of 100 μl of these different drug dilutions are added to the appropriate microtiter wells already containing 100 μl of medium, resulting in the required final drug concentrations.
(§3) Following drug addition, the plates are incubated for an additional 48 h at 37° C., 5% CO2, 95% air, and 100% relative humidity. For adherent cells, the assay is terminated by the addition of cold TCA. Cells are fixed in situ by the gentle addition of 50 μl of cold 50% (w/v) TCA (final concentration, 10% TCA) and incubated for 60 minutes at 4° C. The supernatant is discarded, and the plates are washed five times with tap water and air dried. Sulforhodamine B (SRB) solution (100 μl) at 0.4% (w/v) in 1% acetic acid is added to each well, and plates are incubated for 10 minutes at room temperature. After staining, unbound dye is removed by washing five times with 1% acetic acid and the plates are air dried. Bound stain is subsequently solubilized with 10 mM trizma base, and the absorbance is read on an automated plate reader at a wavelength of 515 nm. For suspension cells, the methodology is the same except that the assay is terminated by fixing settled cells at the bottom of the wells by gently adding 50 μl of 80% TCA (final concentration, 16% TCA). Using the seven absorbance measurements [time zero, (Tz), control growth, (C), and test growth in the presence of drug at the five concentration levels (Ti)], the percentage growth is calculated at each of the drug concentrations levels. Percentage growth inhibition is calculated as: [(Ti−Tz)/(C−Tz)]×100 for concentrations for which Ti>/=Tz [(Ti−Tz)/Tz]×100 for concentrations for which Ti<Tz
(§4) Three dose response parameters are calculated for each experimental agent. […] The drug concentration resulting in total growth inhibition (TGI) is calculated from Ti=Tz. […] Values are calculated for each of these three parameters if the level of activity is reached; however, if the effect is not reached or is exceeded, the value for that parameter is expressed as greater or less than the maximum or minimum concentration tested.
(§5) The methods described were used to test compounds 70 and 71 on a panel of sixty cell lines under a screening service provided by the Developmental Therapeutics Program at the National Institutes of Health. Shown in FIG. 1C are 1, RPMI-8226 leukemia cells; 2; NCI-H322M non-small cell lung cancer cells; 3, HT29 colon cancer cells; 4, U251 CNS cancer cells; 5, SK-MEL-28 melanoma cancer cells; 6, SK-OV-3 ovarian cancer cells; 7, RXF 393 renal cancer cells; 8, PC-3 prostate cancer cells; 9, MDA-MB-231 breast cancer cells.

[2] = system: OVCAR-5; test: NCI DTP cell line screen (SRB), Ovarian Cancer
Method: as §1, §2, §3, §4, §5

[3] = system: OVCAR-4; test: NCI DTP cell line screen (SRB), Ovarian Cancer
Method: as §1, §2, §3, §4, §5

[4] = system: NCI-H460; test: NCI DTP cell line screen (SRB), Non-Small Cell Lung Cancer
Method: as §1, §2, §3, §4, §5

[5] = system: NCI-H322M; test: as above
Method: as §1, §2, §3, §4, §5

[6] = system: MOLT-4; test: NCI DTP cell line screen (SRB), Leukemia
Method: as §1, §2, §3, §4, §5

[7] = system: SR; test: NCI DTP cell line screen (SRB), Leukemia
Method: as §1, §2, §3, §4, §5

[8] = system: K-562; test: NCI DTP cell line screen (SRB), Leukemia
Method: as §1, §2, §3, §4, §5

NCC(=O)Nc1ccc(-n2nc(C(F)(F)F)cc2-c2ccc3c(ccc4ccccc43)c2)cc1 [Compound 70, 2-Amino-N-{4-[5-(2-phenanthrenyl)-3-(trifluoromethyl)-1H-pyrazol-1-yl]-phenyl}-acetamide]
TGI [1]: 3.32E−06 | Percent Growth ([1]; Log10 Concentration −4.0): −35% | Percent Growth ([1]; Log10 Concentration −5.0): −70% | Percent Growth ([1]; Log10 Concentration −6.0): 76% | Percent Growth ([1]; Log10 Concentration −7.0): 83% | Percent Growth ([1]; Log10 Concentration −8.0): 89% | TGI [2]: 3.32E−06 | Percent Growth ([2]; Log10 Concentration −4.0): −71% | Percent Growth ([2]; Log10 Concentration −5.0): −83% | Percent Growth ([2]; Log10 Concentration −6.0): 90% | Percent Growth ([2]; Log10 Concentration −7.0): 103% | Percent Growth ([2]; Log10 Concentration −8.0): 97% | TGI [3]: 3.41E−06 | Percent Growth ([3]; Log10 Concentration −4.0): −68% | Percent Growth ([3]; Log10 Concentration −5.0): −82% | Percent Growth ([3]; Log10 Concentration −6.0): 94% | Percent Growth ([3]; Log10 Concentration −7.0): 92% | Percent Growth ([3]; Log10 Concentration −8.0): 99% | TGI [4]: 2.64E−06 | Percent Growth ([4]; Log10 Concentration −4.0): −33% | Percent Growth ([4]; Log10 Concentration −5.0): −46% | Percent Growth ([4]; Log10 Concentration −6.0): 34% | Percent Growth ([4]; Log10 Concentration −7.0): 77% | Percent Growth ([4]; Log10 Concentration −8.0): 97% | TGI [5]: 2.18E−06 | Percent Growth ([5]; Log10 Concentration −4.0): −57% | Percent Growth ([5]; Log10 Concentration −5.0): −84% | Percent Growth ([5]; Log10 Concentration −6.0): 43% | Percent Growth ([5]; Log10 Concentration −7.0): 51% | Percent Growth ([5]; Log10 Concentration −8.0): 40% | TGI [6]: 3.10E−06 | Percent Growth ([6]; Log10 Concentration −4.0): −6% | Percent Growth ([6]; Log10 Concentration −5.0): −42% | Percent Growth ([6]; Log10 Concentration −6.0): 41% | Percent Growth ([6]; Log10 Concentration −7.0): 87% | Percent Growth ([6]; Log10 Concentration −8.0): 89% | TGI [7]: 4.17E−06 | Percent Growth ([7]; Log10 Concentration −5.0): −27% | Percent Growth ([7]; Log10 Concentration −6.0): 45% | Percent Growth ([7]; Log10 Concentration −7.0): 80% | Percent Growth ([7]; Log10 Concentration −8.0): 84% | TGI [8]: 3.34E−06 | Percent Growth ([8]; Log10 Concentration −4.0): −17% | Percent Growth ([8]; Log10 Concentration −5.0): −30% | Percent Growth ([8]; Log10 Concentration −6.0): 33% | Percent Growth ([8]; Log10 Concentration −7.0): 62% | Percent Growth ([8]; Log10 Concentration −8.0): 97%
